According to patent US6723741B2, “Benzimidazoles and benzothiazoles and uses thereof” (Synaptic Pharmaceutical Corporation, priority 1996, dated 2004):
Structures can show the parent of a compound that is named as a salt.

Assays:
[1] = biological target: human α2C adrenergic receptor (Homo sapiens, UniProt P18825); test: Radioligand binding assay, [3H]rauwolscine competition
[2] = biological target: human α2A adrenergic receptor (Homo sapiens, UniProt P08913); test: Agonist activity: inhibition of forskolin-stimulated cAMP synthesis
[3] = biological target: T1, human α2B adrenergic receptor (Homo sapiens, UniProt P18089); test: Radioligand binding assay, [3H]rauwolscine competition
T1 construct: expressed in transfected cells
T1 sequence (P18089 1-450): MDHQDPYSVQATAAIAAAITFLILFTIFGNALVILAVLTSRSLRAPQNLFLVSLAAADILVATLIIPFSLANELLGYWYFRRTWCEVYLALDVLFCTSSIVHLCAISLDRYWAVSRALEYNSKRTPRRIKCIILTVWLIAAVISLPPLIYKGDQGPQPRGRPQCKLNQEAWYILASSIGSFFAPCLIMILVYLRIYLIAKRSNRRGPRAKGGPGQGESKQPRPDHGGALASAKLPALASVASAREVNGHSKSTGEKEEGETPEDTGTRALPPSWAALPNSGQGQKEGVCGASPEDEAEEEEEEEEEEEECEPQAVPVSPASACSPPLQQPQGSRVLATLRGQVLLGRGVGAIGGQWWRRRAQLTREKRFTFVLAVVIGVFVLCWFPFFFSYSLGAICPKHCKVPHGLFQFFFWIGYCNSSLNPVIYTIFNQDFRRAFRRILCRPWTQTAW

[4] = biological target: T2, human α2C adrenergic receptor (Homo sapiens, UniProt P18825); test: as above
T2 construct: The entire coding region of α2C (1383 bp), including 2 bp of 5′ UT and 400 bp of 3′ UT; expressed in transfected cells
T2 sequence (P18825 1-462): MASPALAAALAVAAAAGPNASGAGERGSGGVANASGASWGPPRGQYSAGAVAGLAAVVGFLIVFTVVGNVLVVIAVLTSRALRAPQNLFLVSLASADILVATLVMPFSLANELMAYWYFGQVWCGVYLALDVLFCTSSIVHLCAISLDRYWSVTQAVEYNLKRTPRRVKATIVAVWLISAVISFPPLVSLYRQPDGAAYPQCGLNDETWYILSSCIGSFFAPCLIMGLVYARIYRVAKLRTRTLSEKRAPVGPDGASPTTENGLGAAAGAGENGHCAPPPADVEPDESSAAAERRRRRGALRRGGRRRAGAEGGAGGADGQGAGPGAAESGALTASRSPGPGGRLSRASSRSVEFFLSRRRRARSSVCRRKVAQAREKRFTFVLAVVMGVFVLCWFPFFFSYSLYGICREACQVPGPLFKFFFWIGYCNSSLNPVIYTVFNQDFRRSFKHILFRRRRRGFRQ

[5] = biological target: T1, human α2B adrenergic receptor; test: Agonist activity: inhibition of forskolin-stimulated cAMP synthesis; type: cell-based
[6] = biological target: T2, human α2C adrenergic receptor; test: as above; type: cell-based
[7] = biological target: T3, human α2A adrenergic receptor (Homo sapiens, UniProt P08913); test: Radioligand binding assay, [3H]rauwolscine competition; set-up: expressed in transfected cells
T3 sequence (P08913 1-465): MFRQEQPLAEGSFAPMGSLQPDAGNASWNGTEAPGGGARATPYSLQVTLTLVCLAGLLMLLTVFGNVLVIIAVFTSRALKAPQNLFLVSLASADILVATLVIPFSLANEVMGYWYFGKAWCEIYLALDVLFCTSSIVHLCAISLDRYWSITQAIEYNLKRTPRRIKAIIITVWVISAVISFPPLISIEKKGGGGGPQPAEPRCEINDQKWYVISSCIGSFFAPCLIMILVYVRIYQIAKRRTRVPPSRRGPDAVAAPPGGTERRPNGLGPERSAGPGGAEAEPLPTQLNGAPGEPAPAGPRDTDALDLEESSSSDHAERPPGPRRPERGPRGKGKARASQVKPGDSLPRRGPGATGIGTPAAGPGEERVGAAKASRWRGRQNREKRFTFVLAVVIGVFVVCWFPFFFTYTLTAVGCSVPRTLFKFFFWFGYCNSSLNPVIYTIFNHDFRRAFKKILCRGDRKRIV

[8] = biological target: T3, human α2A adrenergic receptor; test: Agonist activity: inhibition of forskolin-stimulated cAMP synthesis; remark: listed apart in the source

SMILES | melting point [°C] | further results
c1nc2ccc(NC3=NCCN3)cc2s1 | – | Ki [1]: 102 nM; EC50 [2]: 417 nM
Brc1cc(NC2=NCCN2)cc2ncsc12 (as salt: fumarate) | 209 to 211 | –
Cc1cc(NC2=NCCN2)cc2ncsc12 (as salt: fumarate) | 179 to 181 | –
Brc1cc(NC2=NCCN2)cc2cc[nH]c12 (as salt: fumarate) [Example 2, 7-Bromo-5-(2-imidazolin-2-ylamino)indole] | 272 to 273 | –
c1nc2ccc(NC3=NCCS3)cc2s1 | – | Ki [1]: 1070 nM
CCc1cc(NC2=NCCN2)cc2ncsc12 (as salt: fumarate) | 218 to 220 | –
Clc1cc(NC2=NCCN2)cc2ncsc12 (as salt: fumarate) | 203 to 205 | –
Cc1c(NC2=NCCN2)ccc2[nH]ccc12 (as salt: fumarate) | 215 to 218 | –
c1nc2cc(NC3=NCCN3)ccc2s1 (as salt: fumarate) [Example 13, 5-(2-Imidazolin-2-ylamino)benzothiazole] | 201 to 203 | –
C=C(C)c1cc(NC2=NCCN2)cc2cc[nH]c12 (as salt: maleate) | 154 to 156 | –
Cc1c(NC2=NCCN2)ccc2ncsc12 (as salt: fumarate) | 213 to 215 | –
Clc1cc(NC2=NCCN2)cc2cc[nH]c12 (as salt: fumarate) | 261 to 262 | –
Cc1cc(NC2=NCCS2)cc2cc[nH]c12 [Example 8, 7-Methyl-5-(2-thiazolin-2-ylamino)indole] | – | Ki [3]: 4.9 nM; Ki [4]: 24 nM; EC50 ([5]; inhibition of forskolin-stimulated cAMP, stably transfected cells expressing human α2B, read-out: pEC50 Alpha-2 B (converted)): 44.7 nM; I.A (Intrinsic Activity) Alpha-2 B ([5]; maximum activity relative to maximum activity induced by norepinephrine, human α2B): 0.80; EC50 ([6]; inhibition of forskolin-stimulated cAMP, stably transfected cells expressing human α2C, read-out: pEC50 Alpha-2 C (converted)): 2.19 nM; I.A (Intrinsic Activity) Alpha-2 C ([6]; maximum activity relative to maximum activity induced by norepinephrine, human α2C): 1.00; Ki [7]: 0.832 nM; EC50 [8]: 13.8 nM; I.A (Intrinsic Activity) Alpha-2 A ([8]; maximum activity relative to maximum activity induced by norepinephrine, human α2A): 0.60
Cc1cc(NC2=NCCN2)cc2cc[nH]c12 (as salt: fumarate) | 224 to 226 | –
CC(C)c1cc(NC2=NCCN2)cc2cc[nH]c12 (as salt: succinate) | 254 to 255 | –
Cc1cc(NC2=NCCS2)cc2cc[nH]c12 (as salt: fumarate) [Example 8, 7-Methyl-5-(2-thiazolin-2-ylamino)indole] | 200 to 202 | –
c1nc2ccc(NC3=NCCN3)cc2s1 (as salt: fumarate) [Example 14, 6-(2-Imidazolin-2-ylamino)benzothiazole] | 215 to 216 | –
c1nc2ccc(NC3=NCCS3)cc2s1 (as salt: fumarate) [Example 15, 6-(2-Thiazolin-2-ylamino)benzothiazole] | 181 to 183 | –
